How the values were obtained:
Assay in all cases: Test F preemergence test
Conditions in all cases: scale 0 to 100
bermudagrass = format: in vivo, Cynodon dactylon
How it was run: (§1)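 Test chemicals were formulated in a non-phytotoxic solvent mixture with surfactant and applied preemergence to planted seeds or postemergence to sugarcane plants. Plants were kept in a greenhouse for 14 to 21 days, then visually evaluated against controls.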

Surinam grass = format: in vivo, Brachiaria decumbens
How it was run: as §1

goosegrass = format: in vivo, Eleusine indica
How it was run: as §1

johnsongrass = format: in vivo, Sorghum halepense
How it was run: as §1

pitted morningglory = format: in vivo, Ipomoea lacunosa
Text: Seeds of plant species selected from bermudagrass (Cynodon dactylon), Surinam grass (Brachiaria decumbens), large crabgrass (Digitaria sanguinalis), green foxtail (Setaria viridis), goosegrass (Eleusine indica), johnsongrass (Sorghum halepense), kochia (Kochia scoparia), pitted morningglory (Ipomoea lacunosa), purple nutsedge (Cyperus rotundus), common ragweed (Ambrosia elation), mustard (Brassica nigra), guineagrass (Panicum maximum), […] (Paspalum dilatatum), barnyardgrass (Echinochloa crus-galli), southern sandbur (Cenchrus echinatus), common sowthistle (Sonchus oleraceous), prickly […] spinosa), Italian ryegrass (Lolium multiflorum), common purslane (Portulaca oleracea), broadleaf signalgrass (Brachiaria platyphylla), common groundsel (Senecio vulgaris), common chickweed (Stellaria media), Virginia dayflower (Commelina virginica), annual bluegrass (Poa annua), naked crabgrass (Digitaria nuda), […] cochinchinensis), quackgrass (Elytrigia repens), Canada horseweed (Conyza canadensis), field bindweed (Convolvulus arvensis), […] (Bidens bipinnata), common mallow (Malva sylvestris), Russian thistle (Salsola kali), and sugarcane (Saccharum officinarum) were planted and treated preemergence with test chemicals formulated in a non-phytotoxic solvent mixture which included a surfactant. At a different time, sugarcane was treated with postemergence applications of some of the test chemicals formulated in the same manner. Plants were approximately 3- to 4-leaf stage for the postemergence treatments. Treated plants and controls were maintained in a greenhouse for 14 to 21 days, after which time all species were compared to controls and visually evaluated. […] A dash (-) response means no test result.

purple nutsedge = format: in vivo, Cyperus rotundus
How it was run: as §1

common ragweed = format: in vivo, Ambrosia elation
How it was run: as §1

guineagrass = format: in vivo, Panicum maximum
How it was run: as §1

southern sandbur = format: in vivo, Cenchrus echinatus
How it was run: as §1

prickly sida = format: in vivo, Sida spinosa
How it was run: as §1

Italian ryegrass = format: in vivo, Lolium multiflorum
How it was run: as §1

common purslane = format: in vivo, Portulaca oleracea
How it was run: as §1

broadleaf signalgrass = format: in vivo, Brachiaria platyphylla
How it was run: as §1

naked crabgrass = format: in vivo, Digitaria nuda
How it was run: as §1

itchgrass = format: in vivo, Rottboellia cochinchinensis
How it was run: as §1

field bindweed = format: in vivo, Convolvulus arvensis
How it was run: as §1

Cc1cc[n+]([O-])c([S+]([O-])Cc2c(C(F)(F)F)nn(C)c2OCC(F)(F)F)c1 (racemic) [Compound 30]
Bermudagrass plant response rating (bermudagrass; 62 g ai/ha, Preemergence): 98
Bermudagrass plant response rating (bermudagrass; 125 g ai/ha, preemergence): 100
Plant response rating, Bermudagrass (bermudagrass; Preemergence, 16 g ai/ha): 40
Plant response rating, Bermudagrass (bermudagrass; Preemergence, 31 g ai/ha): 80
Surinam Grass plant response rating (Surinam grass; 62 g ai/ha, Preemergence): 80
Surinam Grass plant response rating (Surinam grass; 125 g ai/ha, preemergence): 100
Plant response rating, Surinam Grass (Surinam grass; Preemergence, 31 g ai/ha): 75
Goosegrass plant response rating (goosegrass; 62 g ai/ha, Preemergence): 90
Goosegrass plant response rating (goosegrass; 125 g ai/ha, preemergence): 98
Plant response rating, Goosegrass (goosegrass; Preemergence, 16 g ai/ha): 40
Plant response rating, Goosegrass (goosegrass; Preemergence, 31 g ai/ha): 75
Johnsongrass plant response rating (johnsongrass; 62 g ai/ha, Preemergence): 80
Johnsongrass plant response rating (johnsongrass; 125 g ai/ha, preemergence): 100
Plant response rating, Johnsongrass (johnsongrass; Preemergence, 16 g ai/ha): 40
Plant response rating, Johnsongrass (johnsongrass; Preemergence, 31 g ai/ha): 60
Morningglory plant response rating (pitted morningglory; 62 g ai/ha, Preemergence): 90
Morningglory plant response rating (pitted morningglory; 125 g ai/ha, preemergence): 100
Plant response rating, Morningglory (pitted morningglory; Preemergence, 16 g ai/ha): 20
Plant response rating, Morningglory (pitted morningglory; Preemergence, 31 g ai/ha): 60
Purple Nutsedge plant response rating (purple nutsedge; 62 g ai/ha, Preemergence): 70
Purple Nutsedge plant response rating (purple nutsedge; 125 g ai/ha, preemergence): 90
Plant response rating, Purple Nutsedge (purple nutsedge; Preemergence, 16 g ai/ha): 0
Plant response rating, Purple Nutsedge (purple nutsedge; Preemergence, 31 g ai/ha): 40
Ragweed plant response rating (common ragweed; 62 g ai/ha, Preemergence): 80
Ragweed plant response rating (common ragweed; 125 g ai/ha, preemergence): 95
Plant response rating, Ragweed (common ragweed; Preemergence, 16 g ai/ha): 50
Plant response rating, Ragweed (common ragweed; Preemergence, 31 g ai/ha): 60
Guineagrass plant response rating (guineagrass; 62 g ai/ha, Preemergence): 100
Guineagrass plant response rating (guineagrass; 125 g ai/ha, preemergence): 100
Plant response rating, Guineagrass (guineagrass; Preemergence, 16 g ai/ha): 35
Plant response rating, Guineagrass (guineagrass; Preemergence, 31 g ai/ha): 100
Sandbur plant response rating (southern sandbur; 62 g ai/ha, Preemergence): 100
Sandbur plant response rating (southern sandbur; 125 g ai/ha, preemergence): 100
Plant response rating, Sandbur (southern sandbur; Preemergence, 31 g ai/ha): 50
Prickly Sida plant response rating (prickly sida; 62 g ai/ha, Preemergence): 95
Prickly Sida plant response rating (prickly sida; 125 g ai/ha, preemergence): 100
Plant response rating, Prickly Sida (prickly sida; Preemergence, 16 g ai/ha): 60
Plant response rating, Prickly Sida (prickly sida; Preemergence, 31 g ai/ha): 80
Ryegrass, Italian plant response rating (Italian ryegrass; 62 g ai/ha, Preemergence): 80
Ryegrass, Italian plant response rating (Italian ryegrass; 125 g ai/ha, preemergence): 95
Plant response rating, Ryegrass, Italian (Italian ryegrass; Preemergence, 16 g ai/ha): 60
Plant response rating, Ryegrass, Italian (Italian ryegrass; Preemergence, 31 g ai/ha): 70
Purslane plant response rating (common purslane; 62 g ai/ha, Preemergence): 75
Purslane plant response rating (common purslane; 125 g ai/ha, preemergence): 100
Plant response rating, Purslane (common purslane; Preemergence, 16 g ai/ha): 35
Plant response rating, Purslane (common purslane; Preemergence, 31 g ai/ha): 50
Signalgrass plant response rating (broadleaf signalgrass; 62 g ai/ha, Preemergence): 70
Signalgrass plant response rating (broadleaf signalgrass; 125 g ai/ha, preemergence): 90
Plant response rating, Signalgrass (broadleaf signalgrass; Preemergence, 31 g ai/ha): 65
Crabgrass, Naked plant response rating (naked crabgrass; 62 g ai/ha, Preemergence): 100
Crabgrass, Naked plant response rating (naked crabgrass; 125 g ai/ha, preemergence): 100
Plant response rating, Crabgrass, Naked (naked crabgrass; Preemergence, 16 g ai/ha): 80
Plant response rating, Crabgrass, Naked (naked crabgrass; Preemergence, 31 g ai/ha): 98
Itchgrass plant response rating (itchgrass; 62 g ai/ha, Preemergence): 70
Itchgrass plant response rating (itchgrass; 125 g ai/ha, preemergence): 85
Plant response rating, Itchgrass (itchgrass; Preemergence, 16 g ai/ha): 20
Plant response rating, Itchgrass (itchgrass; Preemergence, 31 g ai/ha): 25
Field Bindweed plant response rating (field bindweed; 62 g ai/ha, Preemergence): 75
Field Bindweed plant response rating (field bindweed; 125 g ai/ha, preemergence): 75
Plant response rating, Field Bindweed (field bindweed; Preemergence, 16 g ai/ha): 50
Plant response rating, Field Bindweed (field bindweed; Preemergence, 31 g ai/ha): 50

From patent publication US20100298141A1, “SUBSTITUTED PYRIDINE N-OXIDE HERBICIDES” (E. I. DU PONT DE NEMOURS AND COMPANY, priority 2007, published 2010)
